Reference: article PMC8490515, “Neuromedin B receptor stimulation of Cav3.2 T-type Ca^2+ channels in primary sensory neurons mediates peripheral pain hypersensitivity” (Theranostics, 2021)
Ends that are not written are not given here.

How the values were obtained:
[1] = tested on: T-type channels in small TG neurons; assay: Whole-cell patch clamp of T-type channel currents (IT) in small TG neurons; assay type: cell-based, mouse; details: for inhibition of IT: 0.5 mM
Cav3.2 (α1H) = assay: Cav3.2 channel currents in HEK293 cells coexpressing NmbR; assay type: cell-based, human
Protocol: Standard whole-cell recordings were made at room temperature (22-23 °C) as described previously, [25]. Recording electrodes were pulled from borosilicate glass microcapillary tubes (Sutter Instruments) and had resistances from 3 to 5 MΩ when filled with internal solution. Recordings were obtained using a MultiClamp 700B amplifier (Axon Instruments). Data were digitized on a personal computer using a Digidata 1440 interface under the control of the pClamp10.2 acquisition package (Molecular Devices). Data were acquired at 20 kHz with a low-pass Bessel filter at 2-5 kHz. Series resistance was compensated to 80%. The internal solution used for T-type channel current recordings contained 110 mM CsCl, 4 mM Mg-ATP, 0.3 mM Na2-GTP, 25 mM HEPES, and 10 mM EGTA, adjusted to pH 7.4 with CsOH; 295 mOsm. The external solution used for T-type channel current recordings contained 5 mM BaCl2, 140 mM TEA-Cl, 10 mM HEPES, 0.5 mM MgCl2, 5 mM CsCl, and 5.5 mM glucose, adjusted to pH 7.35 with TEA-OH; 305 mOsm. In experiments for Kv current recordings, the extracellular solution contained 140 mM choline-Cl, 1 mM MgCl2, 0.03 mM CaCl2, 5 mM KCl, 10 mM HEPES, and 10 mM glucose, adjusted to pH 7.4 with KOH; 310 mOsm. The intracellular pipette solution contained 140 mM KCl, 1 mM MgCl2, 0.5 mM CaCl2, 3 mM Mg-ATP, 0.3 mM Na2-GTP, 10 mM HEPES, and 5 mM EGTA, adjusted to pH 7.4 with KOH; 295 mOsm.

PKA = PKA activity assay in TG cells (Pep Tag); assay type: cell-based, mouse; details: pretreatment 10 µM compound C, 100 nM Nmb 30 min
Protocol: PKA enzymatic activity in cell lysates was measured using the Pep Tag assay for nonradioactive detection of PKA (Promega, Madison, WI, USA) as described in our previous studies. Briefly, TG cells were cultured in 12-well plates and preincubated with BIM23042 (0.5 μM) or compound C (10 μM) followed by exposure to 100 nM Nmb for 30 min. TG cells were washed with ice-cold phosphate-buffered saline and placed on ice. PKA was extracted from the cell lysates with cold PKA extraction buffer (25 mM Tris-HCl, pH 7.4, 0.5 mM EDTA, 0.5 mM EGTA, 10 mM β-mercaptoethanol, 1 μg/mL leupeptin and 1 μg/mL aprotinin). The assay was conducted according to the manufacturer's instructions.

small TG neurons = assay: TG neuronal excitability (action potential firing, rheobase, threshold); assay type: cell-based, mouse
Protocol: All the procedures performed in this study were carried out in accordance with NIH guidelines and were approved by the Institutional Animal Care and Use Committee of Soochow University. TG neurons were dissociated as previously described, [23]. Briefly, TGs were harvested from 8- to 10-week-old ICR mice of either sex, cut into small pieces and treated with 2 mg/mL collagenase D (Roche) for 20 min followed by 1.5 mg/mL trypsin (Sigma) at 37 °C for 15 min. Cells were dissociated via gentle trituration with fire-polished sterilized Pasteur pipettes and centrifuged through a 15% BSA gradient to remove debris and nonneuronal cells. TG neurons were resuspended in neurobasal A (Thermo Fisher) supplemented with B27 (Thermo Fisher) and transferred onto Matrigel-coated coverslips. Patch clamp recordings were conducted 2 to 6 h after plating. In shRNA-treated knockdown experiments, TG cells were replated onto coverslips 48 h after infection.
Standard whole-cell recordings were made at room temperature (22-23 °C) as described previously, [25]. Recording electrodes were pulled from borosilicate glass microcapillary tubes (Sutter Instruments) and had resistances from 3 to 5 MΩ when filled with internal solution. Recordings were obtained using a MultiClamp 700B amplifier (Axon Instruments). Data were digitized on a personal computer using a Digidata 1440 interface under the control of the pClamp10.2 acquisition package (Molecular Devices). Data were acquired at 20 kHz with a low-pass Bessel filter at 2-5 kHz. Series resistance was compensated to 80%. The internal solution used for T-type channel current recordings contained 110 mM CsCl, 4 mM Mg-ATP, 0.3 mM Na2-GTP, 25 mM HEPES, and 10 mM EGTA, adjusted to pH 7.4 with CsOH; 295 mOsm. The external solution used for T-type channel current recordings contained 5 mM BaCl2, 140 mM TEA-Cl, 10 mM HEPES, 0.5 mM MgCl2, 5 mM CsCl, and 5.5 mM glucose, adjusted to pH 7.35 with TEA-OH; 305 mOsm. In experiments for Kv current recordings, the extracellular solution contained 140 mM choline-Cl, 1 mM MgCl2, 0.03 mM CaCl2, 5 mM KCl, 10 mM HEPES, and 10 mM glucose, adjusted to pH 7.4 with KOH; 310 mOsm. The intracellular pipette solution contained 140 mM KCl, 1 mM MgCl2, 0.5 mM CaCl2, 3 mM Mg-ATP, 0.3 mM Na2-GTP, 10 mM HEPES, and 5 mM EGTA, adjusted to pH 7.4 with KOH; 295 mOsm. The two kinetically distinct Kv currents in small TG neurons were separated by the two-step voltage protocol as previously described, [26]. The external solution for Nav current clamp recordings contained 2 mM KCl, 2 mM MgCl2, 25 mM HEPES, 2 mM CaCl2, 128 mM NaCl, and 30 mM glucose, adjusted to pH 7.4 with NaOH; 305 mOsm. The internal solution contained 10 mM NaCl, 110 mM KCl, 4 mM Mg-ATP, 0.3 mM Na2-GTP, 25 mM HEPES, and 2 mM EGTA, adjusted to pH 7.3 with KOH; 295 mOsm. Nmb was applied to a patched cell by an air-pressure microinjector (Pneumatic PicoPump, model PV830, WPI).
We next determined the role of the Nmb-induced T-type channel response in regulating TG neuronal excitability. […] Furthermore, application of Nmb (100 nM) to TG neurons decreased the peak amplitude of the transient outward K^+ channel currents (A-type currents or IA) (decrease of 22.3 ± 3.9%; Figure 6C), while the sustained delayed rectifier K^+ channel currents (IDR) remained unaffected (decrease of 1.9 ± 1.6%; Figure 6C). […] To further test this hypothesis, a shorter (1 ms) current injection was applied to avoid contaminating the action potential waveform with the stimulus. Neurons were manually hyperpolarized to membrane potentials of -75 mV to maximize the number of T-type channels available for activation. With increasingly stronger current injections (+200 pA), the threshold current necessary to evoke an overshooting AP was determined for each neuron in the presence or absence of Nmb.

T-type channels = details: cited from earlier work; for current density of IT: via PKC, insulin-like growth factor in dorsal root ganglion neurons, angiotensin-II in neonatal cardiomyocytes, ref [28], [60]; for IT inhibition: dopamine in retinal horizontal cells, adrenaline in newt olfactory receptor cells, prevented by PKA inhibitors, ref [56]
From the text: In contrast, stimulation of PKC either by insulin-like growth factor in dorsal root ganglion neurons or by angiote ...

Compound: COc1ccc2c(c1)CC[C@@H]1[C@@H]2CC[C@]2(C)[C@@H](NCCCCCCN3C(=O)C=CC3=O)CC[C@@H]12 [U73122]
- Nmb-induced increase in IT after U73122 ([1]; pretreatment 3 μM U73122 (legend: 1 μM), 100 nM Nmb, n = 8): 31.8 ± 4.2%

Compound: c1cc(-c2cnn3cc(-c4ccc(OCCN5CCCCC5)cc4)cnc23)ccn1 [compound C]
- Nmb-induced increase of Cav3.2 currents after compound C (Cav3.2 (α1H); pretreatment 10 µM compound C, 100 nM Nmb, n = 8): 1.4 ± 2.9%
- effect on Nmb-induced increase in PKA activity (PKA): abrogated
- Nmb-induced increase in IT after compound C ([1]; preincubation 10 µM compound C, 100 nM Nmb, n = 7): 2.6 ± 2.8%

Compound: Nc1nc2c(ncn2[C@@H]2O[C@H](COP(=O)(O)OP(O)(O)=S)[C@@H](O)[C@H]2O)c(=O)[nH]1 [GDP-β-S]
- Nmb-induced increase in IT with GDP-β-S ([1]; 1 mM intracellular GDP-β-S, 100 nM Nmb, n = 6): 2.3 ± 2.7%

Compound: [Cl][Ni][Cl] [NiCl2]
- effect on Nmb-induced decrease in AP threshold (small TG neurons; preincubation 50 µM NiCl2, 100 nM Nmb, n = 9): completely prevented
- effect on Nmb-mediated increase in AP firing rate / hyperexcitability (small TG neurons; pretreatment KT-5720 1 µM (n = 12) or NiCl2 50 μM (n = 11), 100 nM Nmb): completely abolish
- decrease of the remaining inward current (IT) ([1]; 50 μM, -110 mV Vh to -40 mV, 22-23 °C, n = 5): 79.2%
- inhibition of IT at the end of recording after Nmb ([1]; 0.5 mM NiCl2 added at end of recording after 100 nM Nmb): almost abrogated the IT
- inhibition of IT ([1]; n = 5): almost completely abolished
- inhibition of IT ([1]; n = 5, listed as Ni^2+): completely blocked IT

Compound: cholera toxin
- Nmb-induced increase in IT after cholera toxin (Gs) [1]: 33.5 ± 2.9%

Compound: QEHAQEPERQYMHIGTMVEFAYALVGK [Gβγ antagonist QEHA peptide]
- Nmb-induced increase in IT with QEHA ([1]; dialysis 10 μM QEHA, 100 nM Nmb, n = 6): 3.2 ± 2.5%

Compound: angiotensin-II: angiotensin-II in neonatal cardiomyocytes (DRVYIHPF; Angiotensin-2; UniProt P01019 25-32, looked up)
- current density of IT (T-type channels): significantly increases the current density

Compound: CNC[C@H](O)c1ccc(O)c(O)c1 [adrenaline]
- IT inhibition (T-type channels): IT inhibition

Compound: C=C[C@@]1(C)CC(=O)[C@]2(O)[C@@]3(C)[C@@H](O)CCC(C)(C)[C@@H]3[C@H](O)[C@H](OC(C)=O)[C@@]2(C)O1 [forskolin]
- increase of IT by forskolin ([1]; 10 μM, n = 7): 38.3 ± 2.1%

Compound: SKEEKSDKER WQHLADLADFALAMKDT [the scrambled peptide of QEHA]
- Nmb-induced increase in IT with SKEE ([1]; intracellular 10 μM SKEE, 100 nM Nmb, n = 7): 33.2 ± 3.5%

Compound: insulin-like growth factor
- current density of IT (T-type channels): significantly increases the current density

Compound: PKC 19-36: a pseudosubstrate peptide inhibitor of PKC (RFARKGALRQKNVHEVKD; UniProt P17252 19-36, looked up, fragment)
- Nmb-induced increase of Cav3.2 currents with PKC 19-36 (Cav3.2 (α1H); dialysis 10 μM PKC 19-36, 100 nM Nmb, n = 9): 30.8 ± 2.3%
- effect on PMA-induced increase in IT ([1]; 10 μM PKC 19-36, 5 μM PMA, n = 5): abrogated the increase in IT
- Nmb-induced increase in IT with PKC 19-36 ([1]; dialysis 10 µM PKC 19-36, 100 nM Nmb, n = 7): 31.5 ± 3.5%

Compound: NCCc1ccc(O)c(O)c1 [dopamine]
- IT inhibition (T-type channels): IT inhibition

Compound: CCCCCCCCCCCCCC(=O)O[C@@H]1[C@@H](C)[C@@]2(O)[C@@H](C=C(CO)C[C@]3(O)C(=O)C(C)=C[C@@H]23)[C@@H]2C(C)(C)[C@]12OC(C)=O [PMA, phorbol 12-myristate 13-acetate]
- effect of PMA on IT ([1]; 5 μM, n = 7): increase in IT

Compound: corticotrophin-releasing factor: T-type channel inhibition induced by corticotrophin-releasing factor (SEEPPISLDLTFHLLREVLEMARAEQLAQQAHSNRKLMEII; ends and bridges not checked; UniProt P06850 154-194, looked up)
- T-type channel inhibition (T-type channels; MN9D dopaminergic cells, prevented by PKC inhibitors, ref [59]): T-type channel inhibition
